Assay results taken from article PMC12391581 (Antiviral Research, 2025).
“And” between values parts separate entries of the source, which are not always exact repeats. Equal entries are not always repeated. Marks after values point to notes of the source that are not given here.

Tests used:
A(H3N2) viruses [1] = format: cell-based, influenza A(H3N2) virus
A(H1N1)pdm09 viruses = format: cell-based, influenza A(H1N1)pdm09 virus
A(H3N2) viruses [2] = format: cell-based, influenza A(H3N2) virus; remark: listed apart in the source
[3] = system: neuraminidase (NA) of B/Victoria-lineage viruses; format: biochemical, influenza B/Victoria-lineage virus
[4] = system: neuraminidase (NA) of A(H3N2) viruses; format: biochemical, influenza A(H3N2) virus
[5] = system: neuraminidase (NA) of A(H1N1)pdm09 viruses; format: biochemical, influenza A(H1N1)pdm09 virus

COC(=O)OCOc1c2n(ccc1=O)N([C@@H]1c3ccccc3SCc3c1ccc(F)c3F)[C@@H]1COCCN1C2=O [Baloxavir, baloxavir marboxil]
HINT fold-change compared to PA-sequence matched virus (A(H3N2) viruses [1]): 4.4 fold
EC50 fold-change compared to reference median EC50 values (A(H1N1)pdm09 viruses): 2.72 fold and 2.72 ^e fold
Fold change in EC50 (A(H1N1)pdm09 viruses): 2.72^d fold
baloxavir susceptibility phenotype (A(H1N1)pdm09 viruses): RS (key: RS to baloxavir is provisionally defined as >3-fold change in EC50 of a test virus compared to the subtype/lineage-specific median EC50 values)
IRINA fold-change compared to PA-sequence matched virus (A(H3N2) viruses [2]): 4.8 fold

[H]/N=C(\N)N[C@H]1C=C(C(=O)O)O[C@@H]([C@H](OC)[C@H](O)CO)[C@@H]1NC(C)=O [Laninamivir, laninamivir]
Fold-change in IC50 [3]: 0.91 fold
IC50 fold-change compared to reference median IC50 values [3]: 0.91 fold

CCOC(=O)C1=C[C@@H](OC(CC)CC)[C@H](NC(C)=O)[C@@H](N)C1 [Oseltamivir, oseltamivir]
Fold-change in IC50 [4]: 1.86 fold
IC50 fold-change compared to reference median IC50 values [4]: 1.86 fold

CCC(CC)[C@H](NC(C)=O)[C@@H]1[C@H](O)[C@@H](C(=O)O)C[C@H]1N=C(N)N [Peramivir, peramivir]
Fold-change in IC50 [3]: 158 fold
IC50 fold-change compared to reference median IC50 values [3]: 158 fold
NAI inhibition phenotype (NI/RI/HRI) [3]: HRI (key: normal inhibition (NI) is a <5-fold increase in the NAI IC50; RI is a 5- to 50-fold increase; HRI is a >50-fold increase)
NAI inhibition phenotype (NI/RI/HRI) [5]: HRI (key: normal inhibition (NI) is a <10-fold increase in the NAI IC50; RI is a 10- to 100-fold increase; HRI is a >100-fold increase)

CC(=O)N[C@H]1[C@H]([C@H](O)[C@H](O)CO)OC(C(=O)O)=C[C@@H]1N=C(N)N [Zanamivir, zanamivir]
IC50 fold-change (borderline RI) [3]: 5.76- to 6.25 fold
Fold-change in IC50 [4]: 10.16 fold
IC50 fold-change compared to reference median IC50 values [4]: 10.16 fold
NAI inhibition phenotype (NI/RI/HRI) [4]: RI (key: normal inhibition (NI) is a <10-fold increase in the NAI IC50; RI is a 10- to 100-fold increase; HRI is a >100-fold increase)
